We go through two molecules from US12582706B2, “Tolerogenic antigen presenting cells” (Cell4Cure AB, priority 2019, dated 2026).

The test system of assay [1] is CD4^+ T cells. The assay is described as follows: Capacity of DCs to induce T cell proliferation in allogeneic MLR (3H-thymidine). The note with it: for induction of T cell proliferation (CPM): Example 13, FIG. 13(G), compared to control DCs. It counts as cell-based, human. How it is done: (§1) CD14^+ monocytes were cultured at 1.25×10^6 cells/mi for 7 days in GMP DC Medium (CellGenix, Freiburg, Germany) containing HEPES, GlutaMAX and Penicillin-Streptomycin solution (Thermo Fisher, Waltham, MA) in the presence of granulocyte-macrophage colony-stimulating factor (GM-CSF; 100 ng/ml; PeproTech, London, UK) and interleukin-4 (IL-4; 100 ng/ml; PeproTech). Cells were replenished on day 3 with fresh medium and cytokines. Control DCs were differentiated in GM-CSF and IL-4 without addition of any further compounds and optionally further were treated with lipopolysaccharide (LPS; 0.5 ug/ml; Sigma-Aldrich, Saint Louise, MO) or a pro-inflammatory cytokine cocktail consisting of TNFalpha (10 ng/ml; PeproTech), IL-1 beta (10 ng/ml; PeproTech), and prostaglandin E2 (PGE2; 1 ug/ml; Sigma) on day 6 to generate stimulated immunogenic DCs. Tolerogenic DCs (tolDCs) were generated by treatment with various tolerogenic compounds: AhR agonist “C1” (C1; 20 nM; IMA-06201; Immunahr A B, Lund, Sweden) on days 0 and 3, TGFbeta1 (10 or 20 ng/ml; PeproTech) on day 3, and retinoic acid (2 uM; Sigma-Aldrich) on day 6. Control tolDC for comparison were established by treatment with Dexamethasone (Dex; 100 nM; Sigma-Aldrich) and Vitamin D3 (VitD3; 100 nM, StemCell Technologies) on day 3. Phenotypic stability of TolDCs was investigated by addition of LPS (0.5 ug/ml) or a pro-inflammatory cytokine cocktail consisting of TNFalpha (10 ng/ml), IL-1beta (10 ng/ml), PGE2 (1 ug/ml), and for Example 24 also IL-6 (10 ng/ml), for the last 24 hours of culture. On day 7, DCs were harvested and washed extensively before phenotyping and functional assays were performed.
In order to analyse the T cell stimulatory capacity of the generated DC populations, allogeneic MLRs were performed. DC/T cell cultures were carried out in complete medium: RPMI-1640 (Thermo Fisher) containing fetal bovine serum (FBS; 10%; Thermo Fisher), HEPES, GlutaMAX and Penicillin-Streptomycin solution. T cells (10^5 cells/well) were cultured with DCs at a T cell: DC ratio of 10:1 for 5-7 days. Proliferation was determined by incorporation of ^3H-thymidine for the last 18 hours of culture. For determination of CD4^+CD49b^+LAG3^+ Tr1 cells, cells were phenotyped as described below. For determination of CD25^hiFoxp3^+ Treg induction, the T cells from the MLR cultures were rested for additionally 7 days in complete medium containing IL-2 (20 IU/ml; PeproTech) and then subjected to phenotyping as described below.
Control DCs were differentiated from CD14^+ monocytes by culturing in GM-CSF and IL-4 for 7 days. Control DCs were either unstimulated or stimulated with LPS which was added on day 6 to generate immunogenic control DCs. […] TolDCs for comparison were established by treatment with Dex at 100 nM and VitD3 at 100 nM on day 3. On day 6, some of the DCs were treated with LPS (FIG. 5 (A); black bars) or a pro-inflammatory cytokine cocktail consisting of TNFalpha, IL-1beta and PGE2 (FIG. 5 (B); black bars) to test for phenotypical stability under various conditions. All cells were harvested on day 7 and cocultures with CD4^+ T cells were setup in an MLR setting at a T cell:DC ratio of 10:1. At the end of the 7-day cultures, proliferation of T cells was determined by ^3H-thymidine incorporation.
Various compounds were tested for their capacity to induce a tolerogenic phenotype in DCs. […] AhR agonist C1 (AhR ag) at 10 nM on days 0 and 3, TGFbeta at 10 ng/ml on day 3, and RA at 2 uM on day 6. […]

For assay [2], the system named is CD4^+ T cells. As to the kind of experiment: Capacity of DCs to induce CD25^hiFoxp3^+ Tregs in time-extended MLR. It counts as cell-based, human. The conditions noted are these: Example 13, FIG. 13(H); compared to control DCs. How it is done:
as §1
In order to analyse the T cell stimulatory capacity of the generated DC populations, allogeneic MLRs were performed. DC/T cell cultures were carried out in complete medium: RPMI-1640 (Thermo Fisher) containing fetal bovine serum (FBS; 10%; Thermo Fisher), HEPES, GlutaMAX and Penicillin-Streptomycin solution. […] Proliferation was determined by incorporation of ^3H-thymidine for the last 18 hours of culture. […]

The structures appear in SMILES notation.

For the molecule `CC1=C(/C=C/C(C)=C/C=C/C(C)=C/C(=O)O)C(C)(C)CCC1` [RA, all-trans retinoic acid], in the assay on CD4^+ T cells [1], the “induction of T cell proliferation (CPM)” value is recorded as “less T cell proliferation”. Also, in the assay with CD4^+ T cells [2], the “induction of Tregs (CD4^+CD25^+Foxp3^+)” value is on record as “more Tregs”.
In the case of `CCN(C(=O)c1c(O)c2c(Cl)cccc2n(C)c1=O)c1ccccc1` [AhR agonist, N-ethyl-N-phenyl-5-chloro-1,2-dihydro-4-hydroxy-1-methyl-2-oxo-quinoline-3-carboxamide], the “induction of T cell proliferation (CPM)” value in the assay on CD4^+ T cells [1] is “slightly more T cell proliferation”. In addition, in the assay on CD4^+ T cells [1] (Example 13, summary), the “effect on the tolerogenic effect of RA” value was “strengthens the tolerogenic effect of RA”. Moreover, in the assay with CD4^+ T cells [2], the “induction of Tregs (CD4^+CD25^+Foxp3^+)” value is given as “slightly more Tregs”.
